Measured values: US11773379B2, “Enzymes and reagents for measurement of short chain fatty acids” (SYSMEX CORPORATION, priority 2018, dated 2023)

B1: StBK: Symbiobacterium thermophilum-derived butyrate kinase prepared in Reference Example 6 (SEQ ID NO: 25, His tag) (protein, listed as Symbiobacterium thermophilum)
chain: MQQRLLIINPGSTSTKIAVYDDDSPLFAETLRHSAADLACFRDVAAQFPFRRDLILEALDAHGVSLSSLTAVVGRGGLLRPVRGGTYRVDAAMLAELSRAAHGEHASNLGALLAHEIAQAAGGVPAFIVDPVVVDELEPVARLTGLPEMPRRSVFHALNQKAVARRAAADLGRAYTEVNLVVVHLGGGISVGAHRRGRVVDVNNALDGEGPMAPERAGTVPSLGLVHLAFSWQHTLREVGRMLVGRGGLVAHVGTNDARRVEERIAAGDEAARVAYRAMAYQVAKEVGRAAVALGGQVDRIVLTGGLAHSEMLTGWIAEQVEWIAPVAVYPGEDEMAALAAGALRVLRGEEPAQVYGEAGE
modifications: His tag
B2: BKII: recombinant butyrate kinase derived from Acetoanaerobium sticklandii obtained in Reference Example 1 (T7 tag and His tag; SEQ ID NO: 17) (protein, listed as Acetoanaerobium sticklandii)
chain: MEGTMSTYKILAINPGSTSTKIAVYENETQIMEKTLRHSTEEINKYEKIFDQFEFRKNVIVDAVSEAGIAIEELDAVVGRGGLLKPIKGGTYEVSDELIAGLKEPYLGEHASNLGGIIAKEIADAALAPSFIVDPVVVDEMNDVARISGMPEIPRFSIFHALNQKATARRFASEIGKSYEDINVIVAHMGGGVSVGAHEKGRVIDVNNALDGEGPFSPERAGGLPVGDLAKLCFSGKYTHAQIKKLLKGEGGIVAYLGTNDARDVEKMIAEGDEKAKLIYEAMAYQVAKEIGSCATVLKGKVDAIILTGGIAYSEMITTWIKERVSFIADVKIYAGEDEMSALAQGALRVLREEEKPQRYEA
modifications: T7 tag and His tag
B3: NtBK: Natranaerobius thermophilus-derived butyrate kinase prepared in Reference Example 5 (SEQ ID NO: 23, His tag) (protein)
chain: MKQEHRLLVINPGSTSTKIAVYEGESPLIEKKLEHSPEELNKFQDIIDQYDFRKDSILNFLDEQGMNFNKLDAVVARGGLLKPISGGTFKVNDLMVEHLRQGYQGEHASNLGGIIAKEISNQLDIPAYIVDPVVVDELQDIARISGFEPIERKSIFHALNHKAVARKAAAQLGKKYEEANLVVVHLGGGISVGAHNCGDVIDVNNALDGEGPFSPERSGGLPNGDLVRYIDEHNLTWKELKRQLVGNGGLVSYLDTNDGKKVQEMIQSGDEKAEKVYEAMIYQIAKEIGSCAVVLKGELDAIVLTGGLAHDEYLVSRMKEYIKFLGEILVFPGEDEMQSLAEGGLRVLRNEETPKDYS
modifications: His tag; Natranaerobius thermophiles
B4: ToBK2: Thermosediminibacter oceani-derived butyrate kinase prepared in Reference Example 4 (SEQ ID NO: 21, His tag) (protein, listed as Thermosediminibacter oceani)
chain: MEKFRILAINPGSTSTKISIFHGEEEVFTENIVHDYEELKKFKNVIEQEGYRYEAILNALAARGYSLDEIDVVVARGGILRPVKAGTYRINDLMLEDLKDAVAGEHASNVAAFIAHRIGAEKGIPAYIVDPVSVDEMEDVARISGLDGIERKSLSHALNIRRVIYKVSEKFGKDPGELNFIVAHLGGGISIGAIRRGQMVDVESANCEGPFSPERSGGLPILELIDLCFSGRFTKDELKRRLIQEGGVYSYLGTKDIREVEERTRSGDKKAALILEAMVYQIAKCIGQMATVLKGDVDFIILTGGIAKSDYISECIADRVKFIAPVERVPGEEEMKALAEAACRVMTGREKVLDYGGGE
modifications: His tag

Assays:
[1] = test system: BKIII (recombinant butyrate kinase derived from Thermosediminibacter oceani); assay: Substrate specificity of butyrate kinase BKIII; assay type: biochemical; settings: 100 mM sodium salt of fatty acid in second reagent, pH 7.5
Protocol: (§1) Various fatty acids shown in Table 1 were used as a substrate. The measurement was performed using a 7180 type Hitachi automatic analyzer (Hitachi High-Tech Corporation). […] PHARMA CORPORATION) • 5 U/mL ADP-HK II (ADP dependent hexokinase: […] PHARMA CORPORATION) […] In the composition of the second reagent, “sodium salts of various fatty acids” means any one kind of sodium caprylate, sodium caproate, sodium valerate, sodium isovalerate, sodium butyrate, sodium isobutyrate, sodium propionate, sodium acetate, sodium lactate, and sodium succinate. Isobutyric acid, valeric acid, isovaleric acid, caproic acid, and octanoic acid, which are commercially available fatty acids and are not sold as sodium salts, were adjusted to pH 7.5 with sodium hydroxide. […] [Measurement Parameters of Automatic Analyzer] • Analysis method: […]

[2] = test system: BKII (recombinant butyrate kinase derived from Acetoanaerobium sticklandii); assay: Substrate specificity of butyrate kinase BKII; assay type: biochemical; settings: 100 mM sodium salt of fatty acid in second reagent, pH 7.5
Protocol: as §1

[3] = Thermal stability of recombinant butyrate kinase (remaining activity); assay type: physicochemical; settings: for remaining activity: after incubating at 65° C. for 30 minutes, 50 mM potassium phosphate pH 7, 0.1% TN-100, about 1 mg/mL
Protocol: The thermal stability of BKII was examined based on the remaining activity after incubating approximately 0.3 mg/mL BKII at each temperature of 4 to 50° C. for 30 minutes in 10 mM Tris-HCl buffer (pH 7.5) containing 100 mM KCl. The thermal stability of BKIII was examined based on the remaining activity after incubating approximately 1 mg/mL BKIII in 50 mM potassium phosphate buffer (pH 7) containing 0.1% TN-100 (ADEKA Corporation) at each temperature of 4 to 80° C. for 30 minutes. The remaining activity was measured in the same manner as in Example 1. From FIGS. 12 and 13, the thermal stability (remaining activity) of BKII was 50% or more after treatment at 37° C. for 30 minutes, and the thermal stability (remaining activity) of BKIII was 85% or more after treatment at 70° C. for 30 minutes.
The thermal stability of BKIII, Thermosediminibacter oceani-derived butyrate kinase (ToBK2) prepared in Reference Example 4, Natranaerobius thermophilus-derived butyrate kinase (NtBK) prepared in Reference Example 5, and Symbiobacterium thermophilum-derived butyrate kinase (StBK) prepared in Reference Example 6 were compared. Specifically, each butyrate kinase was added to a 50 mM potassium phosphate buffer (pH 7) containing 0.1% TN-100 so that the concentration is about 1 mg/mL, and the remaining activity after incubating at 65° C. for 30 minutes was measured. The remaining activity was measured in the same manner as in Example 1.

[4] = Measurement of recombinant butyrate kinase activity (ADP-HK/G6PDH coupled, NADPH at 340 nm); specific activity, Km and Vmax; assay type: biochemical; settings: with respect to butyric acid
Protocol: The enzymatic activity of BKII and BKIII with respect to butyric acid was measured based on the amount of ADP produced. In the Example 1, ADP produced by the action of butyrate kinase is used to produce NADPH by the action of ADP dependent hexokinase and glucose-6-phosphate dehydrogenase (see FIG. 1), and the amount of ADP produced was measured based on the change in absorbance at 340 nm due to the increase in NADPH. The measurement was performed using a 7080 type Hitachi automatic analyzer (Hitachi High-Tech Corporation).
[Composition of First Reagent] • 50 mM Tris-HCl (pH 7.5) (Sigma-Aldrich Co. LLC.) • 2 mM ATP (pH 7.5) (Oriental Yeast Co., Ltd.) • 2 mM MgCl2 (FUJIFILM Wako Pure Chemical Corporation) • 20 mM glucose (FUJIFILM Wako Pure Chemical Corporation) • 100 mM sodium butyrate (FUJIFILM Wako Pure Chemical Corporation) • 1 mM NADP (FUJIFILM Wako Pure Chemical Corporation) • 5 U/mL G6PDH II (Glucose-6-phosphate dehydrogenase: T-51, ASAHI KASEI PHARMA CORPORATION) • 5 U/mL ADP-HK II (ADP dependent hexokinase: T-92, ASAHI KASEI PHARMA CORPORATION) • 0.1% TN-100 (ADEKA Corporation)
[Composition of BKII Diluent] • 50 mM Tris-HCl (pH 7.5) (Sigma-Aldrich Co. LLC.) • 10 mM KCl (FUJIFILM Wako Pure Chemical Corporation)
[Composition of BKIII Diluent] • 50 mM Potassium phosphate buffer (pH 7.0) (Sigma-Aldrich Co. LLC.) • 0.1% TN-100 (ADEKA Corporation)
[Measurement Parameters of Automatic Analyzer] • Analysis method: Rate-A • Measurement wavelength (secondary/primary): 700 nm/340 nm • Reaction time: 5 minutes • Photometry point: 11 to 16 • Sample volume: 3 μL • First reagent amount: 150 μL […]
The sample was dispensed into a cuvette, then the first reagent was added and stirred. […] The cuvette was irradiated with light and the change in absorption at 340 nm was measured between about 200 seconds and about 296 seconds after the addition of the first reagent. […] The activity value (U/mL) of butyrate kinase was calculated from the following formula by defining the amount of enzyme that phosphorylates 1 μmol of butyric acid per minute as 1 U and using the value of the absorbance change per minute (ΔmAbs/min) calculated from the absorbance at the photometry point and the millimole extinction coefficient (c=6.3) of […] at 340 nm. […]
The specific activity (U/mg) is the activity value per 1 mg of enzyme. The protein (enzyme) concentrations of the BKII solution obtained in Reference Example 1 and the BKIII solution obtained in Reference Example 3 were quantified by the Bradford method, and the specific activities of BKII and BKIII with respect to butyric acid under the measurement conditions of Example 1 were calculated. […]
The Km and Vmax of BKII and BKIII with respect to butyric acid under the measurement conditions of Example 1 were determined by Lineweaver-Burk plot.

Row | Molecule | substrate specificity, relative value when the activity value with respect to butyric acid is 100 [1] [%] | substrate specificity, relative value when the activity value with respect to butyric acid is 100 [2] [%] | other results
1 | CCCCCC(=O)O [Caproic acid] | 56 | 22 | –
2 | CC(C)CC(=O)O [Isovaleric acid] | 148 | 133 | –
3 | CC(O)C(=O)O (stereo not shown) [Lactic acid] | 0 | 0 | –
4 | CCCCCCCC(=O)O [Octanoic acid] | 0 | 0 | –
5 | CCC(=O)O [Propionic acid] | 41 | 62 | –
6 | O=C(O)CCC(=O)O [Succinic acid] | 0 | 2 | –
7 | CCCCC(=O)O [Valeric acid] | 138 | 161 | –
8 | B1 | – | – | remaining activity [3]: 48.7%
9 | B2 | – | – | thermal stability (remaining activity) ([3]; after treatment at 37° C. for 30 minutes, 10 mM Tris-HCl pH 7.5, 100 mM KCl): ≥ 50%; activity value of butyrate kinase ([4]; enzyme solution, 37° C., Tris-HCl pH 7.5): about 340 U/mL; Km ([4]; Lineweaver-Burk plot): 4.2 mM; Vmax ([4]; Lineweaver-Burk plot): 1100 U/mg; specific activity ([4]; measurement conditions of Example 1, protein by Bradford method): about 337 U/mg
10 | B3 | – | – | remaining activity [3]: 14.7%
11 | B4 | – | – | remaining activity [3]: 60.5%
